# Conditions: saturation solubility of CBD in the liquid lipid given as label; supernatant assayed
# Description: Each liquid lipophilic material was heated at 40° C. for 30 minutes in an oven before being combined with the CBD. 10 g of CBD was combined with 5 g of lipophilic material to create a saturated mixture. […] After agitation the solutions were centrifuged at 14800 rpm for 90 minutes to separate out any remaining undissolved CBD crystals. The resulting supernatant was sampled and assayed for CBD content to confirm the saturation solubility of the lipid.
smiles,measurement,value
CCOCCOCCO [Transcutol],CBD,653.2 mg/g

# — patent publication US20260053827A1, “Cannabidiol Solid Dosage Forms” (priority 2024, published 2026)
